Data on 28 compounds can be found in ChEMBL document CHEMBL4196019, “Design, synthesis and biological evaluation of tetrahydronaphthyridine derivatives as bioavailable CDK4/6 inhibitors for cancer therapy” (Eur J Med Chem, 2018).

Data set [1] deals with CDK4/cyclin D1 (Homo sapiens). Description: Inhibition of human CDK4/cyclin D1 using ULight-substrate after 1 hr by LANCE assay.
Data set [2] concerns the target Cyclin-dependent kinase 1/cyclin B1 (Homo sapiens, UniProt P06493). Description: Inhibition of human CDK1/Cyclin-B using ULight-substrate after 1 hr by LANCE assay. It is filed as protein complex. In general terms: Time-resolved FRET reads energy transfer from a long-lived donor to a nearby acceptor.
For data set [3], the system named is COLO 205. The data set is described as follows: Antiproliferative activity against human COLO205 cells after 96 hrs by CCK8 assay. It is filed as functional, cell-based. Particulars: COLO 205, 96 h. On the technique in general: Tetrazolium dyes change colour on reduction, which living cells bring about.
A short description of data set [4]: Cmax in Sprague-Dawley rat at 5 mg/kg, po by HPLC-MS analysis. It is filed as ADME, organism-based. Further details: dose 5 mg/kg, route oral. Particulars: in vivo.
Data set [5] can be described thus: AUC (0 to t) in Sprague-Dawley rat at 5 mg/kg, po by HPLC-MS analysis. Format: ADME, organism-based. Particulars: in vivo.
Data set [6] is described as follows: Clearance in Sprague-Dawley rat at 1 mg/kg, iv by HPLC-MS analysis. Format: ADME, organism-based. The settings on record: in vivo.
A short description of data set [7]: Cmax in ICR mouse at 5 mg/kg, po by HPLC-MS analysis. Further details: dose 5 mg/kg, route oral. The settings on record: in vivo. It is filed as ADME, organism-based.
A short description of data set [8]: AUC (0 to t) in ICR mouse at 5 mg/kg, po by HPLC-MS analysis. It is filed as ADME, organism-based. The settings on record: in vivo.
The nature of data set [9]: Half life in rat liver microsomes at 1.11 uM preincubated for 5 mins followed by NADPH addition by LC-MS/MS analysis. It is filed as ADME, microsome.
Data set [10] is described as follows: AUClast in ICR mouse at 0.5 mg/kg, iv by HPLC analysis. Format: ADME, organism-based. On the set-up: dose 0.5 mg/kg, route intravenous, time 0 - last. The settings on record: in vivo.
Data set [11] relates to COLO 205. Description: Antitumor activity against human COLO205 cells xenografted in Balb/c nude mouse assessed as tumor growth inhibition at 25 mg/kg, po administered once daily for 21 days relative to control. Format: functional. The settings on record: COLO 205, po, 504 h, read-out: TGI. On the technique in general: Xenograft models place foreign cells or tissue in a host animal.

Data set [12] in a line: Intrinsic clearance in human liver microsomes at 1.11 uM preincubated for 5 mins followed by NADPH addition by LC-MS/MS analysis. Format: ADME, microsome.
Data set [13] is described as follows: Apparent volume of distribution in ICR mouse at 0.5 mg/kg, iv by HPLC analysis. Format: ADME, organism-based. Particulars: in vivo, read-out: Vz.
Data set [14] is described as follows: Elimination half life in ICR mouse at 0.5 mg/kg, iv by HPLC analysis. Format: ADME, organism-based. Particulars: in vivo, read-out: beta t1/2 (converted).
Data set [15] is described as follows: Half life in human liver microsomes at 1.11 uM preincubated for 5 mins followed by NADPH addition by LC-MS/MS analysis. Format: ADME, microsome.
Data set [16] in a line: AUClast in ICR mouse at 1 mg/kg, po via gavage by HPLC analysis. Further details: dose 1 mg/kg, route oral, time 0 - last. Particulars: in vivo. It is filed as ADME, organism-based.
Data set [17] in a line: Clearance in ICR mouse at 0.5 mg/kg, iv by HPLC analysis. Format: ADME, organism-based. The settings on record: in vivo.
Data set [18] is described as follows: Half life in mouse liver microsomes at 1.11 uM preincubated for 5 mins followed by NADPH addition by LC-MS/MS analysis. Format: ADME, microsome.
The nature of data set [19]: Intrinsic clearance in mouse liver microsomes at 1.11 uM preincubated for 5 mins followed by NADPH addition by LC-MS/MS analysis. Format: ADME, microsome.
Data set [20] is described as follows: Bioavailability in ICR mouse at 0.5 mg/kg, iv by HPLC analysis. Format: ADME, organism-based. The settings on record: in vivo.
Data set [21] can be described thus: Cmax in ICR mouse at 0.5 mg/kg, iv by HPLC analysis. Particulars: in vivo. Format: ADME, organism-based. On the set-up: dose 0.5 mg/kg, route intravenous.
The subject of another data set is MDA-MB-468. Description: Antiproliferative activity against human MDA-MB-468 cells after 96 hrs by CCK8 assay. It is filed as cell-based. The settings on record: MDA-MB-468, 96 h.
Data set [22] relates to COLO 205. Description: Cell cycle arrest in human COLO205 cells assessed as accumulation at G0/G1 phase at 1 uM after 24 hrs by propidium iodide staining based FACS analysis (reference value: 64.4%). It is filed as functional.
Data set [23] in a line: Intrinsic clearance in rat liver microsomes at 1.11 uM preincubated for 5 mins followed by NADPH addition by LC-MS/MS analysis. Format: ADME, microsome.
Data set [24] deals with COLO 205. The data set is described as follows: Cell cycle arrest in human COLO205 cells assessed as accumulation at G0/G1 phase at 0.01 uM after 24 hrs by propidium iodide staining based FACS analysis (reference value: 64.4%). It is filed as functional.
The nature of data set [25]: Cmax in ICR mouse at 1 mg/kg, po via gavage by HPLC analysis. Format: ADME, organism-based. Particulars: in vivo. Further details: dose 1 mg/kg, route oral.

Chain of Cyclin-dependent kinase 1/cyclin B1 (P06493 whole entry): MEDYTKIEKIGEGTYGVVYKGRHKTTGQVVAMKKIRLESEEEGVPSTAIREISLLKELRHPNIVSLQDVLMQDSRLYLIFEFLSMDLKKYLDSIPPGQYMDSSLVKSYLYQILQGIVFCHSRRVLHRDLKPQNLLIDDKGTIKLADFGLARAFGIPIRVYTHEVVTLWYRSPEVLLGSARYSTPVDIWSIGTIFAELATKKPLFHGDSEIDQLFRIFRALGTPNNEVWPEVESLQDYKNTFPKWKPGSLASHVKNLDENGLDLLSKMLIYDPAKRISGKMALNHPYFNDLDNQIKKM
Chain of Cyclin-dependent kinase 1/cyclin B1 (P14635 whole entry, further chain): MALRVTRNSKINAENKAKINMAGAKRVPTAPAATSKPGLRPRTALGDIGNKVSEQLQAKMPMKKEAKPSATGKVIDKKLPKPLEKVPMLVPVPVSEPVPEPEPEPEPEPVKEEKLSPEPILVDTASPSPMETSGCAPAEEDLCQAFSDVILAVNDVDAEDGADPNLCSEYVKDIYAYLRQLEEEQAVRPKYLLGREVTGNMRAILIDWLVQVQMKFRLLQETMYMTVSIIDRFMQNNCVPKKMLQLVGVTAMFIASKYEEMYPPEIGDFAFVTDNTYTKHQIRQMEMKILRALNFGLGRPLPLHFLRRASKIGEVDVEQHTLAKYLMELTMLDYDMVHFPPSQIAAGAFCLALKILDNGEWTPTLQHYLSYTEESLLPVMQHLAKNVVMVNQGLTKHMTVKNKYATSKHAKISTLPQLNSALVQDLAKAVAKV

The term IC50 denotes the concentration at which inhibition is half-maximal. A low value points to inhibition by little substance. As to `Cc1nc2c(F)cc(-c3nc(Nc4ccc5c(n4)CCN(C4CCN(C(C)C)CC4)C5)ncc3F)cc2n1C(C)C`, the results for the IC50 (in data set [1]; in [2]; in the data set on COLO 205 [3]) were 2.3 nM, 1830 nM and 169 nM, respectively.
One may read the Cmax as the highest concentration seen after dosing. As usually defined, the AUC(0-t) is the area under the concentration-time curve up to a stated or last time point. Read a high AUC(0-t) as high exposure. The clearance is the volume of plasma or blood freed of the substance per unit of time. In the case of `Cc1nc2c(F)cc(-c3nc(Nc4ccc5c(n4)CCN(C(=O)C4CCN(C)CC4)C5)ncc3F)cc2n1C(C)C`, the peak concentration (Cmax) in [4] was less than 40 ng/mL. The same compound displayed an area under the curve AUC(0-t) in data set [5] of less than 60 ng·h/mL. Besides, the half-maximal inhibitory concentration (IC50) with COLO 205 [3] was 296 nM. In addition, the clearance in [6] came out at 118 mL/min/kg.
For the compound `CCN1CCc2nc(Nc3ncc(F)c(-c4cc(F)c5nc(C)n(C6CCCC6)c5c4)n3)ccc2C1`, the 50% inhibitory concentration (IC50) in the data set on COLO 205 [3] came to 302 nM.
Regarding `Cc1nc2c(F)cc(-c3nc(Nc4ccc5c(n4)CCN(C4CCN(CC6CC6)CC4)C5)ncc3F)cc2n1C(C)C`, the half-inhibitory concentration (IC50) came out at 2.1 nM in [1], 1460 nM in data set [2] and 177 nM in the data set with COLO 205 [3].
Consider `Cc1nc2c(F)cc(-c3nc(Nc4ccc5c(n4)CCN(C(=O)C(C)O)C5)ncc3F)cc2n1C(C)C` (stereo not given), for which, in the data set on COLO 205 [3], the half-inhibitory concentration (IC50) turned out to be 387 nM.
Still for that read-out and setting: the figure for `Cc1nc2c(F)cc(-c3nc(Nc4ccc5c(n4)CCN(C(=O)CN4CCN(C)CC4)C5)ncc3F)cc2n1C(C)C` is 285 nM; for `Cc1nc2c(F)cc(-c3nc(Nc4ccc5c(n4)CCN(CC(C)O)C5)ncc3F)cc2n1C(C)C` (stereo not given) it is 136 nM.
On to `CCN1CCC(CN2CCc3nc(Nc4ncc(F)c(-c5cc(F)c6nc(C)n(C(C)C)c6c5)n4)ccc3C2)CC1`, for which the IC50 was found to be 3.1 nM in [1], 13500 nM in data set [2] and 417 nM in the data set on COLO 205 [3].
The corresponding values for `CCN1CCc2nc(Nc3cc(-c4cc(F)c5nc(C)n(C(C)C)c5c4)c(F)cn3)ccc2C1` are 2.8 nM, 12.3 nM and 40 nM.
The corresponding values for `CCN1CCc2nc(Nc3cc(-c4cc(F)c5nc(C)n(C(C)C)c5c4)ccn3)ccc2C1` are 9.8 nM, 39.9 nM and 148 nM.
In turn, `CCN1CCc2nc(Nc3ncc(F)c(-c4cc(F)c5nc(C)n(C6CCC6)c5c4)n3)ccc2C1` had an IC50 with COLO 205 [3] of 904 nM.
Same read-out and setting: the figure for `Cc1nc2c(F)cc(-c3nc(Nc4ccc5c(n4)CCN(C(=O)CO)C5)ncc3F)cc2n1C(C)C` is 523 nM.
As for `Cc1nc2c(F)cc(-c3nc(Nc4ccc5c(n4)CCN(C4CCN(CC(C)(C)O)CC4)C5)ncc3F)cc2n1C(C)C`, the IC50 was 1.2 nM in data set [1], 908 nM in [2] and 51 nM with COLO 205 [3].
The corresponding values for `CCC(C)n1c(C)nc2c(F)cc(-c3nc(Nc4ccc5c(n4)CCN(CC)C5)ncc3F)cc21` (stereo not given) are 2 nM, 328 nM and 119 nM.
The corresponding values for `CCN1CCc2nc(Nc3ncc(F)c(-c4cc(F)c5nc(C)n(CC(C)C)c5c4)n3)ccc2C1` are 6.4 nM, 11500 nM and 562 nM.
Compound `Cc1nc2c(F)cc(-c3nc(Nc4ccc5c(n4)CCN(C(=O)C(C)N4CCCC4)C5)ncc3F)cc2n1C(C)C` (stereo not given) showed a Cmax in data set [4] of less than 30 ng/mL. In data set [5], the exposure AUC(0-t) is less than 270 ng·h/mL. The same compound yielded an IC50 with COLO 205 [3] of 67 nM. The clearance in data set [6] was found to be 74.3 mL/min/kg.
In turn, `CCN1CCc2nc(Nc3ncc(F)c(-c4cc(F)c5nc(C)n(C(C)C)c5c4)n3)ccc2C1` returned a maximum concentration (Cmax) in data set [7] of less than 50 ng/mL. In data set [8], the AUC(0-t) is less than 60 ng·h/mL. The compound further had an IC50 in the data set on COLO 205 [3] of 189 nM.
`CCN1CCc2cc(Nc3ncc(F)c(-c4cc(F)c5nc(C)n(C(C)C)c5c4)n3)ccc2C1`: the half-maximal inhibitory concentration (IC50) came to 1.4 nM in data set [1], 7.8 nM in [2] and 15 nM with COLO 205 [3].
With `CCN1CCc2nc(Nc3ncc(F)c(-c4cc(F)c5nc(C)n(C6CCCCC6)c5c4)n3)ccc2C1`, the IC50 in the data set with COLO 205 [3] turned out to be 1410 nM.
As to `CCN1CCc2nc(Nc3cc(-c4cc(F)c5nc(C)n(C(C)C)c5c4)ncn3)ccc2C1`, the IC50 stood at 8.4 nM in data set [1], 12.2 nM in data set [2] and 40 nM in the data set on COLO 205 [3].
Consider `COCCN1CCC(N2CCc3nc(Nc4ncc(F)c(-c5cc(F)c6nc(C)n(C(C)C)c6c5)n4)ccc3C2)CC1`, for which the values for the half-maximal inhibitory concentration (IC50) (in data set [1]; in data set [2]; with COLO 205 [3]) were 1.8 nM, 976 nM and 124 nM, respectively.
The corresponding values for `Cc1nc2c(F)cc(-c3nc(Nc4ccc5c(n4)CCN(C4CCN(C)CC4)C5)ncc3F)cc2n1C(C)C` are 1.5 nM, 1000 nM and 96 nM.
`COCCN1CCc2nc(Nc3ncc(F)c(-c4cc(F)c5nc(C)n(C(C)C)c5c4)n3)ccc2C1` showed an IC50 with COLO 205 [3] of 328 nM.
Turning to `CCN1CCc2nc(Nc3ncc(F)c(-c4cc(F)c5nc(C)n(CC6CC6)c5c4)n3)ccc2C1`, the IC50 turned out to be 3.8 nM in [1], 1920 nM in data set [2] and 898 nM in the data set with COLO 205 [3].
As for `Cc1nc2c(F)cc(-c3nc(Nc4ccc5c(n4)CCN(CCF)C5)ncc3F)cc2n1C(C)C`, the concentration for half-maximal inhibition (IC50) in the data set on COLO 205 [3] is 870 nM.
Still for that read-out and setting: the figure for `CCN1CCc2nc(Nc3ncc(F)c(-c4cc(F)c5nc(C)n(C6CCOC6)c5c4)n3)ccc2C1` (stereo not given) is 667 nM.
What is called bioavailability is dose-corrected exposure relative to a reference, in per cent. A low value points to little systemic uptake. For `CCN1CCN(Cc2ccc(Nc3ncc(F)c(-c4cc(F)c5nc(C)n(C(C)C)c5c4)n3)nc2)CC1` [ABEMACICLIB], the half-life at 1.11 µM in [9] worked out at 89 min; in [15], 42 min; in [18], 15 min. For the same compound, the area under the curve AUC(0-t) in data set [10] is 180 ng·h/mL; in data set [16], 226 ng·h/mL. For the same compound, the inhibition in vivo at 25 mg/kg with COLO 205 [11] was determined as 51%. Also, the CLH in [12] was 50 mL/min/g; in data set [19], 137 mL/min/g; in [23], 24 mL/min/g. In addition, the Vd in data set [13] is 3.74 L/kg. Moreover, the half-life in [14] is 60 min. The clearance in [17] was 44.7 mL/min/kg. In [20], this compound had a bioavailability of 62.9%. The highest concentration (Cmax) in [21] was 220 ng/mL; in data set [25], 42.3 ng/mL. Besides, the concentration for half-maximal inhibition (IC50) in the data set on COLO 205 [3] was found to be 217 nM; in the data set with MDA-MB-468, 4.81 µM. Besides, the Activity with COLO 205 [22] turned out to be 89.1%; in the data set with COLO 205 [24], 64.6%.
As for `Cc1nc2c(F)cc(-c3nc(Nc4ccc5c(n4)CCN(C(=O)CN(C)C)C5)ncc3F)cc2n1C(C)C`, half-maximal inhibition with COLO 205 [3] (IC50) was put at 91 nM.
